Where two headings read alike, the source gives them in different places.
Key:
[1] = system: washed human platelets; assay: Collagen-induced platelet aggregation, light transmission aggregometry (Born method); format: cell-based; details: for IC50: collagen 1 µg/mL, dose-response curves, read-out: IC50 (95% CI) of platelet aggregation; for IC50 / activity at 20 µM: washed human platelets; for activity at 20 µM: compound 20 µM, means ± SDs of three experiments, 100% = agonist alone
Protocol: Light transmission aggregometry, i.e., the Born method, was used to determine in vitro antiplatelet aggregation activity using collagen as the agonist for platelet aggregation. Collagen was selected as the agonist, since it is the most thrombogenic component of the subendothelial layer. Collagen also serves as a substrate for platelet adhesion and as an inducer of platelet activation.
All experiments using human blood from healthy volunteers were performed according to the protocols approved by the Institutional Review Board at Cincinnati Children’s Hospital Medical Center, Cincinnati, Ohio. Each volunteer was required to sign an informed consent form approved by the IRB. Procedures for drawing human blood, isolating platelet-rich plasma (PRP), and preparing washed platelet suspensions were the same as those previously reported. […] PRP was obtained by means of the centrifugation of blood at 1400 rpm for 15 min at room temperature. PRP was centrifuged at 4000 rpm for 10 min at room temperature, and the platelet pellet was resuspended in HEPES Tyrode’s solution (pH 7.4) without calcium. Platelets were counted using Hemavet 950FS (Drew Scientific, Oxford, CT, USA), and the count was adjusted to 2.5 × 10^8/mL for aggregation studies.
The in vitro antiplatelet activity of the compounds was assayed on washed human platelets using light transmission aggregometry. Platelet aggregation was performed using a 4-channel Lumi-aggregometer (Chronolog, PA, USA) at 37 °C and stirring speed of 900 rpm. A volume of 250 µL of washed human platelets (2.5 × 10^8/mL) was pre-warmed to 37 °C along with the compounds or DMSO (0.1%) for 2 min before the addition of agonists such as collagen, AA, U46619 (a stable synthetic analog of thromboxane A2), ADP, and thrombin. For ATP secretion, platelets were pre-incubated with a luciferin/luciferase kit (Chrono-lume®) for 30 s at 37 °C before the addition of the agonist. The reactions were allowed to proceed for at least 4 min, and the results of platelet aggregation and ATP secretion were determined using Aggrolink software. Platelet aggregation was expressed as the maximum change in the light transmission, where the 100% value corresponded to treatment with the agonist alone. Compounds were evaluated in triplicate at nine compound concentrations ranging from 50 µM to 1 µM.

[2] = system: RhoA; assay: RhoA-GTP formation, GST-Rhotekin effector pull-down assay in collagen-stimulated platelets; format: cell-based, human; details: R-G04 10 µM or 50 µM, S-G04 3 µM or 20 µM; collagen 1 µg/mL
Protocol: Next, the ability of the six compounds to suppress RhoA activity in platelets was assessed by subjecting them to a GST (Glutathione-S-transferase)-Rhotekin effector pull-down assay. The compounds were incubated with washed human platelets for 2 min before being stimulated with 1 µg/mL collagen. The analogs inhibited the activation of RhoA at the 20 µM concentration (Figure 2A,B). […] After confirming that these analogs could prevent RhoA activation and the phosphorylation of the MLC, their ability to disrupt complex-formation between RhoA and LARG was tested. […] These findings indicate that the active analogs inhibit RhoA activation by disrupting the binding between RhoA and its GEF.
(A,B) Washed human platelets were incubated with collagen (1 µg/mL) for 4 min, and the levels of RhoA-GTP formation were quantified with a GST-Rhotekin effector pull-down assay. The platelets were pre-incubated with 20 µM UC-177618, UC-177619, UC-177628, UC-177629, […], or […] for 2 min before being stimulated with collagen. The addition of ice-cold lysis buffer terminated the reaction. […] Relative amounts of the GTP-bound form of RhoA were quantified with densitometry measurements of total RhoA (T-RhoA) and normalized to untreated platelets. (C,D) The addition of 20 µM of active Rhosin-related compounds to washed human platelets 2 min before stimulation with collagen blocked the phosphorylation of the myosin light chain (p-MLC). The reactions were terminated after 4 min by adding 4x Laemmli sample buffer. The samples were processed for Western blotting and probed for MLC and p-MLC, and phosphorylation was quantified by measuring the densitometry of total MLC (T-MLC). The differences between DMSO- and Rhosin-related compounds were analyzed with t-test, and the results are shown as means ± SDs of three independent experiments. (* p < 0.05, ** p < 0.01, *** p < 0.001, and **** p < 0.0001).
The relative levels of RhoA-GTP in washed human platelets were quantified with effector domains GST-Rhotekin pull-down assays as previously reported. A volume of 250 µL of washed human platelets (2.5 × 10^8/mL) was pre-warmed to 37 °C along with the compounds or DMSO (0.1%) for 2 min before being stimulated with collagen (1 µg/mL). The reactions were terminated 4 min after collagen stimulation by adding ice-cold lysis buffer (20 mM Tris·HCl (pH 7.6), 100 mM NaCl, 1% Triton X-100, 0.2% Sodium Deoxycholate, 10 mM MgCl2, 1 mM dithiothreitol, 1x protease inhibitor cocktail, and 1x phosphatase inhibitor cocktail). The supernatants were collected and subjected to the GST-Rhotekin pull-down assay. The total cell lysates were also blotted in parallel. GTP-bound RhoA was quantitatively detected with Western blotting using an anti-RhoA antibody. The relative amounts of RhoA were quantified with densitometry measurements and normalized to the untreated platelets.

[3] = Platelet, read-out: % Platelet Aggregation, Collagen (1 µg/mL)
[4] = Platelet, read-out: % Platelet Aggregation, Collagen (5 µg/mL)

IC50 ([1]; Homo sapiens, Platelet) [µM] | IC50 [1] [µM] | SMILES | activity at 20 µM [1, 3] [%] | activity at 20 µM [1, 4] [%] | RhoA-GTP formation [2] | potency of S-G04 relative to R-G04 ([1]; from IC50, collagen 1 µg/mL)
22.6 | – | N[C@H](Cc1c[nH]c2ccccc12)C(=O)N/N=C/c1ccc2nccnc2c1 [R-G04] | 70.3 ± 18.9 | 71.4 ± 15 | inhibited RhoA-GTP formation in a concentration-dependent manner | –
7.8 | 7.96 | N[C@@H](Cc1c[nH]c2ccccc12)C(=O)N/N=C/c1ccc2nccnc2c1 [S-G04] | 9.33 ± 4.93 | 20 ± 5 | inhibited RhoA-GTP formation in a concentration-dependent manner | three times more potent than R-G04
